# Results taken from PubChem BioAssay (NCI).
#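 Values below derive from 48-hour exposures of cells grown in 96-well plates, with endpoints linearly interpolated between the two concentrations bracketing the appropriate inhibition level. TGI denotes the concentration required for complete inhibition of growth.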
# Key:
# Experiment in all cases: NCI-60 cell line screen, 48 h
# NCI-H460 lung = test system: NCI-H460 lung
# HL-60(TB) leukemia = test system: HL-60(TB) leukemia
# IGROV1 ovarian = test system: IGROV1 ovarian
# HCT-15 colon = test system: HCT-15 colon
# MCF7 breast = test system: MCF7 breast
# CCRF-CEM leukemia = test system: CCRF-CEM leukemia
# SNB-19 CNS = test system: SNB-19 CNS
# NCI/ADR-RES ovarian = test system: NCI/ADR-RES ovarian
# ACHN renal = test system: ACHN renal
# HS 578T breast = test system: HS 578T breast
# OVCAR-5 ovarian = test system: OVCAR-5 ovarian
# MDA-N = test system: MDA-N
# SW-620 colon = test system: SW-620 colon
# LOX IMVI melanoma = test system: LOX IMVI melanoma
# TK-10 renal = test system: TK-10 renal
# UACC-62 melanoma = test system: UACC-62 melanoma
# SF-268 CNS = test system: SF-268 CNS
# K-562 leukemia = test system: K-562 leukemia
# RXF 393 renal = test system: RXF 393 renal
# U251 CNS = test system: U251 CNS
# COLO 205 colon = test system: COLO 205 colon
# PC-3 prostate = test system: PC-3 prostate
# OVCAR-4 ovarian = test system: OVCAR-4 ovarian
# A549 NSCLC = test system: A549 NSCLC
# DU-145 prostate = test system: DU-145 prostate
# NCI-H23 lung = test system: NCI-H23 lung
# SN12C renal = test system: SN12C renal
# SF-295 CNS = test system: SF-295 CNS
# HOP-62 NSCLC = test system: HOP-62 NSCLC
# OVCAR-8 ovarian = test system: OVCAR-8 ovarian
# HT29 colon = test system: HT29 colon
# MOLT-4 leukemia = test system: MOLT-4 leukemia
# SNB-75 CNS = test system: SNB-75 CNS
# RPMI-8226 leukemia = test system: RPMI-8226 leukemia
# HCT-116 colon = test system: HCT-116 colon
# BT-549 breast = test system: BT-549 breast
# UACC-257 melanoma = test system: UACC-257 melanoma
# MDA-MB-231 breast = test system: MDA-MB-231 breast
# SR leukemia = test system: SR leukemia
# SF-539 CNS = test system: SF-539 CNS
# MALME-3M melanoma = test system: MALME-3M melanoma
# HOP-92 NSCLC = test system: HOP-92 NSCLC
# KM12 colon = test system: KM12 colon
# SK-MEL-5 melanoma = test system: SK-MEL-5 melanoma
# T-47D breast = test system: T-47D breast
# UO-31 renal = test system: UO-31 renal
# SK-OV-3 ovarian = test system: SK-OV-3 ovarian
# 786-0 renal = test system: 786-0 renal
# SK-MEL-28 melanoma = test system: SK-MEL-28 melanoma
# SK-MEL-2 melanoma = test system: SK-MEL-2 melanoma
# M14 melanoma = test system: M14 melanoma
# NCI-H522 lung = test system: NCI-H522 lung
# HCC-2998 colon = test system: HCC-2998 colon
# NCI-H226 lung = test system: NCI-H226 lung
# MDA-MB-435 = test system: MDA-MB-435
# OVCAR-3 ovarian = test system: OVCAR-3 ovarian
# EKVX NSCLC = test system: EKVX NSCLC
# CAKI-1 renal = test system: CAKI-1 renal
compound,measurement,setting,value
Cc1ccc(S(=O)(=O)NC(=O)NC(CC(=O)O)C(=O)O)cc1 (stereo not drawn),TGI,NCI-H460 lung,> 100 µM
same,TGI,HL-60(TB) leukemia,> 100 µM
same,TGI,IGROV1 ovarian,> 100 µM
same,TGI,HCT-15 colon,> 100 µM
same,TGI,MCF7 breast,> 100 µM
same,TGI,CCRF-CEM leukemia,> 100 µM
same,TGI,SNB-19 CNS,> 100 µM
same,TGI,NCI/ADR-RES ovarian,> 100 µM
same,TGI,ACHN renal,> 100 µM
same,TGI,HS 578T breast,> 100 µM
same,TGI,OVCAR-5 ovarian,> 100 µM
same,TGI,MDA-N,> 100 µM
same,TGI,SW-620 colon,> 100 µM
same,TGI,LOX IMVI melanoma,> 100 µM
same,TGI,TK-10 renal,> 100 µM
same,TGI,UACC-62 melanoma,> 100 µM
same,TGI,SF-268 CNS,> 100 µM
same,TGI,K-562 leukemia,> 100 µM
same,TGI,RXF 393 renal,> 100 µM
same,TGI,U251 CNS,> 100 µM
same,TGI,COLO 205 colon,> 100 µM
same,TGI,PC-3 prostate,> 100 µM
same,TGI,OVCAR-4 ovarian,> 100 µM
same,TGI,A549 NSCLC,> 100 µM
same,TGI,DU-145 prostate,> 100 µM
same,TGI,NCI-H23 lung,> 100 µM
same,TGI,SN12C renal,> 100 µM
same,TGI,SF-295 CNS,> 100 µM
same,TGI,HOP-62 NSCLC,> 100 µM
same,TGI,OVCAR-8 ovarian,> 100 µM
same,TGI,HT29 colon,> 100 µM
same,TGI,MOLT-4 leukemia,> 100 µM
same,TGI,SNB-75 CNS,> 100 µM
same,TGI,RPMI-8226 leukemia,> 100 µM
same,TGI,HCT-116 colon,> 100 µM
same,TGI,BT-549 breast,> 100 µM
same,TGI,UACC-257 melanoma,> 100 µM
same,TGI,MDA-MB-231 breast,> 100 µM
same,TGI,SR leukemia,> 100 µM
same,TGI,SF-539 CNS,> 100 µM
same,TGI,MALME-3M melanoma,> 100 µM
same,TGI,HOP-92 NSCLC,> 100 µM
same,TGI,KM12 colon,> 100 µM
same,TGI,SK-MEL-5 melanoma,> 100 µM
same,TGI,T-47D breast,> 100 µM
same,TGI,UO-31 renal,> 100 µM
same,TGI,SK-OV-3 ovarian,> 100 µM
same,TGI,786-0 renal,> 100 µM
same,TGI,SK-MEL-28 melanoma,> 100 µM
same,TGI,SK-MEL-2 melanoma,> 100 µM
same,TGI,M14 melanoma,> 100 µM
same,TGI,NCI-H522 lung,> 100 µM
CN1CCN(c2nc3cc(F)ccc3n3cccc23)CC1,TGI,NCI-H460 lung,43 µM
same,TGI,HL-60(TB) leukemia,> 100 µM
same,TGI,IGROV1 ovarian,87.6 µM
same,TGI,HCT-15 colon,> 100 µM
same,TGI,MCF7 breast,> 100 µM
same,TGI,CCRF-CEM leukemia,> 100 µM
same,TGI,SNB-19 CNS,> 100 µM
same,TGI,NCI/ADR-RES ovarian,> 100 µM
same,TGI,ACHN renal,> 100 µM
same,TGI,HS 578T breast,97.9 µM
same,TGI,OVCAR-5 ovarian,> 100 µM
same,TGI,MDA-N,> 100 µM
same,TGI,SW-620 colon,> 100 µM
same,TGI,LOX IMVI melanoma,31.4 µM
same,TGI,TK-10 renal,> 100 µM
same,TGI,UACC-62 melanoma,80.4 µM
same,TGI,SF-268 CNS,> 100 µM
same,TGI,K-562 leukemia,> 100 µM
same,TGI,RXF 393 renal,> 100 µM
same,TGI,U251 CNS,> 100 µM
same,TGI,COLO 205 colon,> 100 µM
same,TGI,PC-3 prostate,> 100 µM
same,TGI,OVCAR-4 ovarian,> 100 µM
same,TGI,A549 NSCLC,> 100 µM
same,TGI,NCI-H23 lung,> 100 µM
same,TGI,SN12C renal,> 100 µM
same,TGI,SF-295 CNS,52.9 µM
same,TGI,HCC-2998 colon,> 100 µM
same,TGI,HOP-62 NSCLC,> 100 µM
same,TGI,NCI-H226 lung,54.1 µM
same,TGI,OVCAR-8 ovarian,> 100 µM
same,TGI,HT29 colon,87.6 µM
same,TGI,MOLT-4 leukemia,81.8 µM
same,TGI,SNB-75 CNS,90.7 µM
same,TGI,MDA-MB-435,64.6 µM
same,TGI,OVCAR-3 ovarian,> 100 µM
same,TGI,RPMI-8226 leukemia,> 100 µM
same,TGI,HCT-116 colon,> 100 µM
same,TGI,BT-549 breast,> 100 µM
same,TGI,UACC-257 melanoma,79 µM
same,TGI,MDA-MB-231 breast,> 100 µM
same,TGI,SR leukemia,> 100 µM
same,TGI,SF-539 CNS,79.2 µM
same,TGI,MALME-3M melanoma,62.4 µM
same,TGI,HOP-92 NSCLC,> 100 µM
same,TGI,KM12 colon,> 100 µM
same,TGI,SK-MEL-5 melanoma,38 µM
same,TGI,T-47D breast,> 100 µM
same,TGI,UO-31 renal,> 100 µM
same,TGI,SK-OV-3 ovarian,> 100 µM
same,TGI,786-0 renal,> 100 µM
same,TGI,EKVX NSCLC,> 100 µM
same,TGI,SK-MEL-28 melanoma,51.8 µM
same,TGI,M14 melanoma,34.5 µM
same,TGI,NCI-H522 lung,> 100 µM
same,TGI,CAKI-1 renal,79 µM
